Literature values in patent US20060200870A1, “Methods of treating muscular dystrophy” (priority 2004, published 2006).
“Also recorded” adds a separate entry of the source.

How the values were obtained:
[1] = system: mdx mice
[2] = system: derangements or deficiencies in AGAT activity; conditions: oral creatine
[3] = system: humans with DMD; conditions: humans (males) with DMD
[4] = system: patients with DMD; conditions: 0.75 mg/kg in intermittent regimens

## CN(CC(=O)O)C(=N)N [creatine]
[1]
  benefit of oral creatine supplementation: some benefits
[2]
  success in overcoming derangements or deficiencies in AGAT activity: partially successful
[3]
  benefit / therapeutic effect of oral creatine supplementation: no such clear benefit; also recorded: has not been shown to have a significant therapeutic effect

## C[C@]12C=CC(=O)C=C1CC[C@@H]1[C@@H]2C(=O)C[C@@]2(C)[C@H]1CC[C@]2(O)C(=O)CO [prednisone]
[4]; some patients
  independent ambulation: can help prolong independent ambulation
[4]; weight-gain, osteopenia, hirsutism, cushingoid facies, behavioral and endocrinology-related issues
  adverse side-effects: significant adverse side-effects
